The source made the active and inactive calls.
What was measured:
[1] = target: cAMP-dependent protein kinase catalytic subunit gamma (Homo sapiens, UniProt P22612)
[2] = target: T1, ATP-dependent 6-phosphofructokinase, platelet type (Homo sapiens, UniProt Q01813)
T1 sequence (Q01813 whole entry): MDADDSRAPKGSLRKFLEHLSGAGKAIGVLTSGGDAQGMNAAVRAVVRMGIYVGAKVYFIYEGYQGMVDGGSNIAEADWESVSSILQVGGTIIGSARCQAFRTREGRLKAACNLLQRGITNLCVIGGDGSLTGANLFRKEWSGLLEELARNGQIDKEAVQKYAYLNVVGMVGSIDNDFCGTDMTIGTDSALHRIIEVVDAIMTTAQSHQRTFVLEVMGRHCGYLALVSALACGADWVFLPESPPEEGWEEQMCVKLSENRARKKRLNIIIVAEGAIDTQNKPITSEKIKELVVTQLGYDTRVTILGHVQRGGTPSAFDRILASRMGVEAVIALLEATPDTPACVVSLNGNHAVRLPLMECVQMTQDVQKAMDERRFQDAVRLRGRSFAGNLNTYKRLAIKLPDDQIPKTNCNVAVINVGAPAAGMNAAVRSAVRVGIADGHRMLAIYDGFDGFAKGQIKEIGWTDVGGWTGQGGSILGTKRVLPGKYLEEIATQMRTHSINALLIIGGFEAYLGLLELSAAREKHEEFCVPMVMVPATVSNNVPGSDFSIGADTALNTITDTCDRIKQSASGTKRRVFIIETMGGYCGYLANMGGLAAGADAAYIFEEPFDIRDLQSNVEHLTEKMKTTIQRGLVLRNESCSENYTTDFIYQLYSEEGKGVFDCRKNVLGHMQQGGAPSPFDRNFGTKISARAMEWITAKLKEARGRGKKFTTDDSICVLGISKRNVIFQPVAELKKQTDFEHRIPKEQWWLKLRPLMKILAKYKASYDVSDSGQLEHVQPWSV

[3] = target: Receptor-interacting serine/threonine-protein kinase 2 (Homo sapiens, UniProt O43353)
[4] = target: Tyrosine-protein kinase SYK (Homo sapiens, UniProt P43405)
GTP-binding protein 4 = GTP-binding protein 4 (Homo sapiens, UniProt Q9BZE4)
[5] = target: DNA topoisomerase 2-alpha (Homo sapiens, UniProt P11388)
[6] = target: Mitogen-activated protein kinase 11 (Homo sapiens, UniProt Q15759)
[7] = target: Ras-related protein Rab-6A (Homo sapiens, UniProt P20340)
[8] = target: Serine/threonine-protein kinase 26 (Homo sapiens, UniProt Q9P289)
[9] = target: Mitogen-activated protein kinase 3 (Homo sapiens, UniProt P27361)
[10] = target: T2, Structural maintenance of chromosomes protein 1A (Homo sapiens, UniProt Q14683)
T2 sequence (Q14683 whole entry): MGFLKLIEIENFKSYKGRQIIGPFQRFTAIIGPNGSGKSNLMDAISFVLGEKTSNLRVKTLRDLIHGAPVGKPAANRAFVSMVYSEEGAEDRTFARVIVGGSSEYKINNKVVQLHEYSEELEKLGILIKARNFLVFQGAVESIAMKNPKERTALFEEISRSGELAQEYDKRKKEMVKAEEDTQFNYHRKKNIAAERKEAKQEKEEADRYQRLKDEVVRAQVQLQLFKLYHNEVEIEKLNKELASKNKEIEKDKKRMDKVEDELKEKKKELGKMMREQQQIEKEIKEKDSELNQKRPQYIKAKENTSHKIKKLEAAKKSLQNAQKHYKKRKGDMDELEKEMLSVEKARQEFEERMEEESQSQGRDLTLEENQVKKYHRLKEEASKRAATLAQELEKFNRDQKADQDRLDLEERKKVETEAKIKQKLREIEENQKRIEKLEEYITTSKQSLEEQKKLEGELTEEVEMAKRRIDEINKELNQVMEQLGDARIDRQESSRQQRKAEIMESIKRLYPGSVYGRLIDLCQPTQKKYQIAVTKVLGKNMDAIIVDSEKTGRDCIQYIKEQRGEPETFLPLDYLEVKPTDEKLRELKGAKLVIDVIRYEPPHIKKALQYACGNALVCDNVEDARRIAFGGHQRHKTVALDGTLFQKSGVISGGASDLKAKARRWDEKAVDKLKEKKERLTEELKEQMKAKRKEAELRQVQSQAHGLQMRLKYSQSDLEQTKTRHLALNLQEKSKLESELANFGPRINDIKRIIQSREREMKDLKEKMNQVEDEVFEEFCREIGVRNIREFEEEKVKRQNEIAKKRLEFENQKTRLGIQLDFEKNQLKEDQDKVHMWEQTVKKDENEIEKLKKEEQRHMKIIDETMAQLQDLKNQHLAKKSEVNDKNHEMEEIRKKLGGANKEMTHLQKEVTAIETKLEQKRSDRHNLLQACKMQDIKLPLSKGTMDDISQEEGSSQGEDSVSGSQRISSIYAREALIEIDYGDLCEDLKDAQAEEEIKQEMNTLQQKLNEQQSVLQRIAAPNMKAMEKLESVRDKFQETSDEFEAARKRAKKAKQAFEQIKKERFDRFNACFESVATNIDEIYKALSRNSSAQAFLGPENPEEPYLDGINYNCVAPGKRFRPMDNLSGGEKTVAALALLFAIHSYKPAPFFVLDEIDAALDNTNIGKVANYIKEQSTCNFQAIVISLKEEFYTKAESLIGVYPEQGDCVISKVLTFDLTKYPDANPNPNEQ

[11] = target: Serine/threonine-protein kinase SIK2 (Homo sapiens, UniProt Q9H0K1)
[12] = target: Mitogen-activated protein kinase 9 (Homo sapiens, UniProt P45984)
[13] = target: Cyclin-dependent kinase 3 (Homo sapiens, UniProt Q00526)
Further: in the data inactive means no Kd found up to 30 µM.

Sequence of Mitogen-activated protein kinase 11 (Q15759 whole entry): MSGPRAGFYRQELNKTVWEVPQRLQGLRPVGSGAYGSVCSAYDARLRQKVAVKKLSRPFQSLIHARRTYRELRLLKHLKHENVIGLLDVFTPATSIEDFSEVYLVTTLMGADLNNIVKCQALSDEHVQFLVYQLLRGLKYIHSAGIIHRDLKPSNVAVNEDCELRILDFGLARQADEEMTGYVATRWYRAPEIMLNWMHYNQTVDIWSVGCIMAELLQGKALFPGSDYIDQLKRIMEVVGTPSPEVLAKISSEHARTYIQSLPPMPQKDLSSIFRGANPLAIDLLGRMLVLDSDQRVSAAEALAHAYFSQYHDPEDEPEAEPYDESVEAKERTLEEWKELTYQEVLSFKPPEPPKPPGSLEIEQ
Sequence of Mitogen-activated protein kinase 3 (P27361 whole entry): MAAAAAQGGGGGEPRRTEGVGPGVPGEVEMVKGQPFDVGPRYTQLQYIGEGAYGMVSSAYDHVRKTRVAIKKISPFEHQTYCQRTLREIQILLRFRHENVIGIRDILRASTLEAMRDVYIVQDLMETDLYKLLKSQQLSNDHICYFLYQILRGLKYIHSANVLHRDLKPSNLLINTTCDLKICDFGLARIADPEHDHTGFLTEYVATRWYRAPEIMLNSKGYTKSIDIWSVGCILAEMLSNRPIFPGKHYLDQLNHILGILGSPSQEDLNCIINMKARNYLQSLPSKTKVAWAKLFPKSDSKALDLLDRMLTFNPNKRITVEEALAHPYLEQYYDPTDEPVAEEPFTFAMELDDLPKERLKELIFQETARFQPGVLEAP
Sequence of cAMP-dependent protein kinase catalytic subunit gamma (P22612 whole entry): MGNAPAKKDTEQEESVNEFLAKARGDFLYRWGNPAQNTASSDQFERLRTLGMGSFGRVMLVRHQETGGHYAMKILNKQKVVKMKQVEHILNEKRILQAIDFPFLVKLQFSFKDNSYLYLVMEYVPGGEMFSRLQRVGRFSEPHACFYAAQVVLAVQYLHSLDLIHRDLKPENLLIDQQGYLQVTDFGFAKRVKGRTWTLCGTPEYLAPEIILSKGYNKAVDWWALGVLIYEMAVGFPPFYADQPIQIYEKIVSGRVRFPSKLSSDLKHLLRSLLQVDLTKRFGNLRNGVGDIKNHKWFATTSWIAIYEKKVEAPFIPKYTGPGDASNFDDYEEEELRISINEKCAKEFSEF
Sequence of Ras-related protein Rab-6A (P20340 whole entry): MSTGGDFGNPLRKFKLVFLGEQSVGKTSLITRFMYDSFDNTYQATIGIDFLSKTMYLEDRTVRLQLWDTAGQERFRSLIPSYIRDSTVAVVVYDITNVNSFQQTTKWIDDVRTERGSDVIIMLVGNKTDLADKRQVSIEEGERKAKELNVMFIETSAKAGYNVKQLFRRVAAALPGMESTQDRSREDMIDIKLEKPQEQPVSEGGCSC
Sequence of Receptor-interacting serine/threonine-protein kinase 2 (O43353 whole entry): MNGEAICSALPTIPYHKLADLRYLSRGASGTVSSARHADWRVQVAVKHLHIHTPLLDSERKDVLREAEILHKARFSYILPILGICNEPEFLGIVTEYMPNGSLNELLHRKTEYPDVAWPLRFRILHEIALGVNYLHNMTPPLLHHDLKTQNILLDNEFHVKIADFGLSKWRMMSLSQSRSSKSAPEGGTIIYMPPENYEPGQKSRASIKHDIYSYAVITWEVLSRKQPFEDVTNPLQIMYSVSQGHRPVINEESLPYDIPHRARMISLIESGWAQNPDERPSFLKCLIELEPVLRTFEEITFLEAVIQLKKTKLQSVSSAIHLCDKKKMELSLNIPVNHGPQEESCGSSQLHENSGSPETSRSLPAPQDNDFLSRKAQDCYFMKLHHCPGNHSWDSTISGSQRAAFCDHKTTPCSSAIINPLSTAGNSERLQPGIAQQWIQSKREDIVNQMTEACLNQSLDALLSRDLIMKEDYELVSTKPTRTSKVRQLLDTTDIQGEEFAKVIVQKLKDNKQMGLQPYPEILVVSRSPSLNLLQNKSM
Sequence of Serine/threonine-protein kinase SIK2 (Q9H0K1 whole entry): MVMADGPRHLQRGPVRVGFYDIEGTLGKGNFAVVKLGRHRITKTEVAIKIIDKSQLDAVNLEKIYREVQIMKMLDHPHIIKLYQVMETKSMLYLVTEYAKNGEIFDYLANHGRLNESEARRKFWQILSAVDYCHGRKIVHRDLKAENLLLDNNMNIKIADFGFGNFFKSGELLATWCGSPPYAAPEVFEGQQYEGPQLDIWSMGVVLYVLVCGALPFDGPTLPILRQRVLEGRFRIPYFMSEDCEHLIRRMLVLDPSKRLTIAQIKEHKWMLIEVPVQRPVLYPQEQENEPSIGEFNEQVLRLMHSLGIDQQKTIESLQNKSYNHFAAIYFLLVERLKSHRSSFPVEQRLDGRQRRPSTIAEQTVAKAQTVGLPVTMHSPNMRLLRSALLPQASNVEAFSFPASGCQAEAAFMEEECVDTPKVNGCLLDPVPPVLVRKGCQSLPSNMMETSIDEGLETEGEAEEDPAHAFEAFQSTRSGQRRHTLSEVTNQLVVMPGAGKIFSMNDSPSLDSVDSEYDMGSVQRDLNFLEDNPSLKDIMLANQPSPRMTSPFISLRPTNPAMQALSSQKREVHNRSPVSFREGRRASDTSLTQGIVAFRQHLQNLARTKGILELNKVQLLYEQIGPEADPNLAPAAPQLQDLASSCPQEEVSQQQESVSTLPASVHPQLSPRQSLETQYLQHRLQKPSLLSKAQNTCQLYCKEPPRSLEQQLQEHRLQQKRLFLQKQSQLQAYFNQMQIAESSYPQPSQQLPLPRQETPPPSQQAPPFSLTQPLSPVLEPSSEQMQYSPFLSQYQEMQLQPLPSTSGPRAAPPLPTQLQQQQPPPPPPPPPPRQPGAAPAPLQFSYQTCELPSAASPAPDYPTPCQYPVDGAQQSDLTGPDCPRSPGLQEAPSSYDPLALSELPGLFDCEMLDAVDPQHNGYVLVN
Sequence of DNA topoisomerase 2-alpha (P11388 whole entry): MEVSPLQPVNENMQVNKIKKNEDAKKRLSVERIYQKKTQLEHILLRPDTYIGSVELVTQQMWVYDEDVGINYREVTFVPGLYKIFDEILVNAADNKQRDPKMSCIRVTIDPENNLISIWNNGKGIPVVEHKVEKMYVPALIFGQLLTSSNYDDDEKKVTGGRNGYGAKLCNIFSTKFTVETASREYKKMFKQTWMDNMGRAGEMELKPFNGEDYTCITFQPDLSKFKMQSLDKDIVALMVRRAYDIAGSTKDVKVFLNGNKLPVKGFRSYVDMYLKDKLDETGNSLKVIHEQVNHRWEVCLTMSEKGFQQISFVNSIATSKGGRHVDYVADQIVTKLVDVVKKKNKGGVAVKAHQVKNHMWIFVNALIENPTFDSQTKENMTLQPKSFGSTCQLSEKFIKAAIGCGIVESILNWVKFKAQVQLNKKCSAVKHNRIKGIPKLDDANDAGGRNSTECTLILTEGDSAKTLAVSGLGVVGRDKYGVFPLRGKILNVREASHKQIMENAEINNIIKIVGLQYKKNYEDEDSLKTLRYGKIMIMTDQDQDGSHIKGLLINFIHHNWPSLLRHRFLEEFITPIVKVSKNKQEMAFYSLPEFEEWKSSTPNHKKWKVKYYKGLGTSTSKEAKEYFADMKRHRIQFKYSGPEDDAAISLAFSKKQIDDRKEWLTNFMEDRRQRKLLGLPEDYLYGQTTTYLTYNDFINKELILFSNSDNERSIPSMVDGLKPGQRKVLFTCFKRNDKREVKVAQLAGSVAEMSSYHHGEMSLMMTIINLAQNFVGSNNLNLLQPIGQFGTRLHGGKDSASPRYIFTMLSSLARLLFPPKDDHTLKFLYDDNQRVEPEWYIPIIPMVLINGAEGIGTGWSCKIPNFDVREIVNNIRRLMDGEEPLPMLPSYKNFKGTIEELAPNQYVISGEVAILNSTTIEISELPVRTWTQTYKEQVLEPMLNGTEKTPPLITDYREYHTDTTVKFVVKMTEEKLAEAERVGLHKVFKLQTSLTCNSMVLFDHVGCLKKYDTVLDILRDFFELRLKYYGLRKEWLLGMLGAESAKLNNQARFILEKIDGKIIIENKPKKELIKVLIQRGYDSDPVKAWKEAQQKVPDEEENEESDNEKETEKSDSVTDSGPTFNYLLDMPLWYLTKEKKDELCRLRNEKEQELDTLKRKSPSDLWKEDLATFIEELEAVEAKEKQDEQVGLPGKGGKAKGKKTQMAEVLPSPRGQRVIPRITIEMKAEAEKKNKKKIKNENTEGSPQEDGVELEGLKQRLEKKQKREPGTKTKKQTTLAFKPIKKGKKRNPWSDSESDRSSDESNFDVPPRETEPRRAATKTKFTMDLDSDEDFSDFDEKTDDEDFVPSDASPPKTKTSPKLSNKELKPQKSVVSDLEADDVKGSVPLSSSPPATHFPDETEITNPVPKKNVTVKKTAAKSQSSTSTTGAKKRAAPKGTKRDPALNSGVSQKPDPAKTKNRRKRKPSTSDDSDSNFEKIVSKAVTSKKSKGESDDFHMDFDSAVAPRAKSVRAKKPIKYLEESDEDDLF
Sequence of Cyclin-dependent kinase 3 (Q00526 whole entry): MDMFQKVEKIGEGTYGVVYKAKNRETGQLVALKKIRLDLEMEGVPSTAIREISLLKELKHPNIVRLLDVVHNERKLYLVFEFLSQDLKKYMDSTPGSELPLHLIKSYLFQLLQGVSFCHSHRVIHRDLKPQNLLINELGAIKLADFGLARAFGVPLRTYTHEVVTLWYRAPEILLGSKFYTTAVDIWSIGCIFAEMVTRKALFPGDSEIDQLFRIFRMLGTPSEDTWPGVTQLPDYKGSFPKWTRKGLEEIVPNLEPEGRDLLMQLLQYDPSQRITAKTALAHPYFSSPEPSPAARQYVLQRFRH
Sequence of Serine/threonine-protein kinase 26 (Q9P289 whole entry): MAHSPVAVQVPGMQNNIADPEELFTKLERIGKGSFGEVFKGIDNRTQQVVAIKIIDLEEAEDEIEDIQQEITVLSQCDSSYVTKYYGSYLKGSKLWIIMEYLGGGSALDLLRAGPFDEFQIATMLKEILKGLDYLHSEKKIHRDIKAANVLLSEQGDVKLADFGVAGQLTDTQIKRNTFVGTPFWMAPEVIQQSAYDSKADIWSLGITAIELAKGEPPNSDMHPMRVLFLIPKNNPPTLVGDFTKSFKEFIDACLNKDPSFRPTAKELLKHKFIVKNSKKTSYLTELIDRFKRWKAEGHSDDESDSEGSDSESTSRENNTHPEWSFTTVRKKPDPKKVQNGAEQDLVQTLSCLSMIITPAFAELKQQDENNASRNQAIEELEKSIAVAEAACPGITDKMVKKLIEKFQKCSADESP

SMILES	Kd [1]	Kd [2]	Kd [3]	Kd [4]	Kd (GTP-binding protein 4)	Kd [5]	Kd [6]	Kd [7]	Kd [8]	Kd [9]	Kd [10]	Kd [11]	Kd [12]	Kd [13]
CCc1cnn2c(NCc3ccc[n+]([O-])c3)cc(N3CCCC[C@H]3CCO)nc12 [DINACICLIB]	> 30 µM (inactive)	> 30 µM (inactive)	> 30 µM (inactive)	> 30 µM (inactive)	> 30 µM (inactive)	> 30 µM (inactive)	> 30 µM (inactive)	> 30 µM (inactive)	0.098 µM (active)	> 30 µM (inactive)	> 30 µM (inactive)	> 30 µM (inactive)	–	–
CNC(=O)c1ccc(-c2cnc3ncc(Cc4ccc5ncccc5c4)n3n2)cc1F [CAPMATINIB]	> 30 µM (inactive)	–	> 30 µM (inactive)	> 30 µM (inactive)	> 30 µM (inactive)	> 30 µM (inactive)	> 30 µM (inactive)	–	> 30 µM (inactive)	> 30 µM (inactive)	> 30 µM (inactive)	> 30 µM (inactive)	> 30 µM (inactive)	–
CN1CCC(COc2cnc(-c3cccc(Cn4nc(-c5cccc(C#N)c5)ccc4=O)c3)nc2)CC1 [TEPOTINIB]	> 30 µM (inactive)	> 30 µM (inactive)	> 30 µM (inactive)	–	> 30 µM (inactive)	–	> 30 µM (inactive)	> 30 µM (inactive)	–	> 30 µM (inactive)	> 30 µM (inactive)	> 30 µM (inactive)	> 30 µM (inactive)	> 30 µM (inactive)
O=C(c1ccc(F)c(F)c1Nc1ccc(I)cc1F)N1CC(O)([C@@H]2CCCCN2)C1 [COBIMETINIB]	> 30 µM (inactive)	> 30 µM (inactive)	> 30 µM (inactive)	> 30 µM (inactive)	> 30 µM (inactive)	> 30 µM (inactive)	> 30 µM (inactive)	> 30 µM (inactive)	> 30 µM (inactive)	> 30 µM (inactive)	> 30 µM (inactive)	> 30 µM (inactive)	> 30 µM (inactive)	–
Cc1ccc(NC(=O)c2ccc(CN3CC[C@H](N(C)C)C3)c(C(F)(F)F)c2)cc1Nc1nccc(-c2cncnc2)n1 [BAFETINIB]	> 30 µM (inactive)	–	1.47 µM (active)	> 30 µM (inactive)	> 30 µM (inactive)	–	1.72 µM	–	> 30 µM (inactive)	> 30 µM (inactive)	> 30 µM (inactive)	> 30 µM (inactive)	> 30 µM (inactive)	> 30 µM (inactive)
COC(=O)[C@@]1(O)C[C@H]2O[C@]1(C)n1c3ccccc3c3c4c(c5c6ccccc6n2c5c31)C(=O)NC4 [K-252A]	> 30 µM (inactive)	> 30 µM (inactive)	–	–	> 30 µM (inactive)	> 30 µM (inactive)	> 30 µM (inactive)	> 30 µM (inactive)	> 30 µM (inactive)	> 30 µM (inactive)	> 30 µM (inactive)	0.058 µM (active)	0.986 µM (active)	0.032 µM (active)
Cc1cc2c(F)c(Oc3ncnn4cc(OC[C@@H](C)OC(=O)[C@H](C)N)c(C)c34)ccc2[nH]1 [BRIVANIB ALANINATE]	> 30 µM (inactive)	> 30 µM (inactive)	> 30 µM (inactive)	> 30 µM (inactive)	> 30 µM (inactive)	–	> 30 µM (inactive)	> 30 µM (inactive)	> 30 µM (inactive)	> 30 µM (inactive)	> 30 µM (inactive)	> 30 µM (inactive)	> 30 µM (inactive)	> 30 µM (inactive)

The remaining lines, values ahead:

Kd [1]	Kd [2]	Kd [3]	Kd [4]	Kd (GTP-binding protein 4)	Kd [5]	Kd [6]	Kd [7]	Kd [8]	Kd [9]	Kd [10]	Kd [11]	Kd [12]	Kd [13]	SMILES
> 30 µM (inactive)	> 30 µM (inactive)	> 30 µM (inactive)	> 30 µM (inactive)	> 30 µM (inactive)	–	–	> 30 µM (inactive)	> 30 µM (inactive)	> 30 µM (inactive)	> 30 µM (inactive)	> 30 µM (inactive)	> 30 µM (inactive)	> 30 µM (inactive)	C[C@@H]1CN(Cc2ccc(F)cc2)[C@@H](C)CN1C(=O)c1cc2c(C(=O)C(=O)N(C)C)cn(C)c2cc1Cl [TALMAPIMOD]
> 30 µM (inactive)	> 30 µM (inactive)	> 30 µM (inactive)	> 30 µM (inactive)	> 30 µM (inactive)	–	> 30 µM (inactive)	> 30 µM (inactive)	> 30 µM (inactive)	> 30 µM (inactive)	> 30 µM (inactive)	> 30 µM (inactive)	> 30 µM (inactive)	> 30 µM (inactive)	C1=C/COCc2cc(ccc2OCCN2CCCC2)Nc2nccc(n2)-c2cccc(c2)COC/1 [PACRITINIB]
> 30 µM (inactive)	> 30 µM (inactive)	0.751 µM (active)	> 30 µM (inactive)	> 30 µM (inactive)	–	> 30 µM (inactive)	> 30 µM (inactive)	> 30 µM (inactive)	> 30 µM (inactive)	> 30 µM (inactive)	> 30 µM (inactive)	> 30 µM (inactive)	> 30 µM (inactive)	CNC(=O)CN1CCC(Oc2cc3c(Nc4cccc(Cl)c4F)ncnc3cc2OC)CC1 [SAPITINIB]
> 30 µM (inactive)	> 30 µM (inactive)	0.011 µM (active)	> 30 µM (inactive)	> 30 µM (inactive)	> 30 µM (inactive)	> 30 µM (inactive)	> 30 µM (inactive)	–	> 30 µM (inactive)	> 30 µM (inactive)	> 30 µM (inactive)	> 30 µM (inactive)	–	COc1cc2nccc(Oc3ccc(NC(=O)NC4CC4)c(Cl)c3)c2cc1C(N)=O [LENVATINIB]
> 30 µM (inactive)	> 30 µM (inactive)	> 30 µM (inactive)	–	> 30 µM (inactive)	> 30 µM (inactive)	> 30 µM (inactive)	> 30 µM (inactive)	–	> 30 µM (inactive)	> 30 µM (inactive)	> 30 µM (inactive)	–	> 30 µM (inactive)	Cc1cc(Nc2cc(N3CCN(C)CC3)nc(/C=C/c3ccccc3)n2)n[nH]1 [ENMD-2076]
> 30 µM (inactive)	> 30 µM (inactive)	> 30 µM (inactive)	> 30 µM (inactive)	> 30 µM (inactive)	–	> 30 µM (inactive)	> 30 µM (inactive)	> 30 µM (inactive)	> 30 µM (inactive)	–	> 30 µM (inactive)	> 30 µM (inactive)	> 30 µM (inactive)	Cn1cc(-c2ccc(F)c(C(F)(F)F)c2)nc1C1CCN(c2ncnc3[nH]ncc23)CC1 [LY-2584702]
